# Test results: article PMC8206213, “An L-2-hydroxyglutarate biosensor based on specific transcriptional regulator LhgR” (Nature Communications, 2021)
# Several values for one entry are separate records, joined by “and”; a condition that tells them apart may be missing. Identical values can stand only once.
# Key:
# LHGFR0N7C = test: Specificity of purified LHGFR0N7C, emission ratio with 240 μM compounds; format: binding, Pseudomonas putida W619; details: 240 μM compound
# [1] = test system: LHGFR0N7C expressed in HEK293FT cells; test: Specificity of LHGFR0N7C expressed in permeabilized HEK293FT cells, 1 mM compounds; format: cell-based, human (HEK293FT cells); details: Supplementary Fig. 17d; Control about 1
# Experimental: To characterize the sensitivity and specificity of LHGFR expressed in HEK293FT cells, cells were trypsinized 48 h following transfection and suspended in 1× Hank’s balanced salt solution supplemented with 20 mM HEPES. […] Digitonin at a concentration of 10 μM was used to induce cell permeabilization and deplete intracellular L-2-HG for in vivo response curves construction. Then, the fluorescence intensities were determined by a SpectraMax i3 fluorescence plate reader (Molecular Devices, USA) with excitation at 430 nm and emission at 485 nm (mTFP) and 528 nm (Venus). Basal L-2-HG concentration in HEK293FT cells under physiological conditions was determined by substituting the emission ratios of non-permeabilized HEK293FT cells into the calibrated in vivo response curves.
# LhgO = test: Enzymatic assay of LhgO in crude extracts of P. putida KT2440 derivatives grown on different carbon sources (induction of lhgO under LhgR control); format: cell-based, Pseudomonas putida
# Experimental: The cells were harvested at mid-log phase, washed twice and resuspended in phosphate-buffered saline (PBS), then lysed by sonication on ice after the addition of 1 mM phenylmethylsulfonyl fluoride (PMSF). […] Protein concentrations of the supernatants were determined using the Bradford protein assay kit (Sangon, China). […] The 800 μL reaction solution contained 0.1 mM […], 0.05 mM DCPIP, 0.2 mM phenazine methosulfate (PMS) in PBS and 40 μL crude extracts.
# [2] = Dose-response of purified LHGFR and its variants for L-2-HG in 50 mM Tris-HCl buffer (pH 7.4), Venus/mTFP emission ratio; format: binding
# Experimental: Purified L-2-HG biosensors and different compounds were diluted by 50 mM Tris-HCl buffer (pH 7.4), mixed together in a black 96-well plate at a volume ratio of 3:1, and the fluorescence intensities were measured using an EnSight microplate reader (PerkinElmer, USA) with excitation at 430 nm, emission at 485 nm (mTFP) and 528 nm (Venus). The dose-response curves were fitted by OriginPro 2016 software (OriginLab) according to the following formula:1 R=Rmax+Rmin−Rmax/1+([L-2-HG]/Kd)^p where R, Rmin, and Rmax refer to the emission ratio of Venus to mTFP, ratio in the absence of L-2-HG, and ratio at saturation with L-2-HG, respectively. The [L-2-HG], Kd, and p refer to the L-2-HG concentration, apparent dissociation constant, and Hill slope, respectively. Emission spectra were recorded at 430 nm excitation, in steps of 2 nm. Excitation spectra were recorded using emission at 550 nm, excitation from 380 to 535 nm in steps of 2 nm.
smiles,measurement,setting,value
"O=C(O)CC[C@H](O)C(=O)O [L-2-HG, L-2-Hydroxyglutarate]",Emission ratio,LHGFR0N7C,2.5923 and 2.613 and 2.627
same,Normalized emission ratio,[1],1.4262 and 1.43 and 1.452
same,LhgO activity,LhgO; crude extract of DcsiRDcsiDDlhgO-pME6032-F2-lhgR-F1-lhgO grown with the compound as sole carbon source,0.02147 and 0.02016 and 0.02474
same,LhgO activity,LhgO; crude extract of DcsiRDcsiDDlhgO-pME6032 grown with the compound as sole carbon source,0.00119 and 0.00104 and 0.00167
same,LhgO activity,LhgO; crude extract of DcsiRDlhgO-pME6032-F2-lhgR-F1-lhgO grown with the compound as sole carbon source,0.02241 and 0.0245 and 0.02829
same,Induction of lhgO expression / effector molecule of LhgR,LhgO; gene segment F2-lhgR-F1-lhgO in P. putida KT2440 derivatives,can induce the expression of lhgO
same,Emission ratio of 528/485,"[2]; For L-2-HG, 2-HG concentration 0.01, Suppl. Fig. 9c",1.3857 and 1.387 and 1.404
same,Emission ratio of 528/485,"[2]; For L-2-HG, 2-HG concentration 0.01, Suppl. Fig. 9d",1.655 and 1.676 and 1.693
same,Emission ratio of 528/485,"[2]; For L-2-HG, 2-HG concentration 0.1, Suppl. Fig. 9c",1.381 and 1.392 and 1.391
same,Emission ratio of 528/485,"[2]; For L-2-HG, 2-HG concentration 0.1, Suppl. Fig. 9d",1.641 and 1.674 and 1.689
same,Emission ratio of 528/485,"[2]; For L-2-HG, 2-HG concentration 0.2, Suppl. Fig. 9c",1.397 and 1.394 and 1.401
same,Emission ratio of 528/485,"[2]; For L-2-HG, 2-HG concentration 0.2, Suppl. Fig. 9d",1.675 and 1.688 and 1.698
same,Emission ratio of 528/485,"[2]; For L-2-HG, 2-HG concentration 1, Suppl. Fig. 9c",1.392 and 1.412 and 1.423
same,Emission ratio of 528/485,"[2]; For L-2-HG, 2-HG concentration 1, Suppl. Fig. 9d",1.753 and 1.778 and 1.797
same,Emission ratio of 528/485,"[2]; For L-2-HG, 2-HG concentration 2, Suppl. Fig. 9c",1.425 and 1.451 and 1.463
same,Emission ratio of 528/485,"[2]; For L-2-HG, 2-HG concentration 2, Suppl. Fig. 9d",1.892 and 1.897 and 1.889
same,Emission ratio of 528/485,"[2]; For L-2-HG, 2-HG concentration 10, Suppl. Fig. 9c",1.602 and 1.628 and 1.623
same,Emission ratio of 528/485,"[2]; For L-2-HG, 2-HG concentration 10, Suppl. Fig. 9d",2.254 and 2.242 and 2.288
same,Emission ratio of 528/485,"[2]; For L-2-HG, 2-HG concentration 20, Suppl. Fig. 9c",1.712 and 1.7343 and 1.752
same,Emission ratio of 528/485,"[2]; For L-2-HG, 2-HG concentration 20, Suppl. Fig. 9d",2.359 and 2.347 and 2.363
same,Emission ratio of 528/485,"[2]; For L-2-HG, 2-HG concentration 100, Suppl. Fig. 9c",1.988 and 1.973 and 1.992
same,Emission ratio of 528/485,"[2]; For L-2-HG, 2-HG concentration 100, Suppl. Fig. 9d",2.568 and 2.652 and 2.688
same,Emission ratio of 528/485,"[2]; For L-2-HG, 2-HG concentration 200, Suppl. Fig. 9c",2.0666 and 2.05 and 2.077
same,Emission ratio of 528/485,"[2]; For L-2-HG, 2-HG concentration 200, Suppl. Fig. 9d",2.563 and 2.676 and 2.688
same,Emission ratio of 528/485,"[2]; For L-2-HG, 2-HG concentration 1000, Suppl. Fig. 9c",2.162 and 2.183 and 2.153
same,Emission ratio of 528/485,"[2]; For L-2-HG, 2-HG concentration 1000, Suppl. Fig. 9d",2.635 and 2.6341 and 2.632
same,Emission ratio of 528/485,"[2]; For L-2-HG, 2-HG concentration 2000, Suppl. Fig. 9c",2.173 and 2.178 and 2.17
same,Emission ratio of 528/485,"[2]; For L-2-HG, 2-HG concentration 2000, Suppl. Fig. 9d",2.667 and 2.655 and 2.697
same,Emission ratio of 528/485,"[2]; Supplementary Fig. 6a, L-2-HG concentration 0.01",1.3857 and 1.387 and 1.404
same,Emission ratio of 528/485,"[2]; Supplementary Fig. 6a, L-2-HG concentration 0.1",1.381 and 1.392 and 1.391
same,Emission ratio of 528/485,"[2]; Supplementary Fig. 6a, L-2-HG concentration 0.2",1.397 and 1.394 and 1.401
same,Emission ratio of 528/485,"[2]; Supplementary Fig. 6a, L-2-HG concentration 1",1.392 and 1.412 and 1.423
same,Emission ratio of 528/485,"[2]; Supplementary Fig. 6a, L-2-HG concentration 2",1.425 and 1.451 and 1.463
same,Emission ratio of 528/485,"[2]; Supplementary Fig. 6a, L-2-HG concentration 10",1.602 and 1.628 and 1.623
same,Emission ratio of 528/485,"[2]; Supplementary Fig. 6a, L-2-HG concentration 20",1.712 and 1.7343 and 1.752
same,Emission ratio of 528/485,"[2]; Supplementary Fig. 6a, L-2-HG concentration 100",1.988 and 1.973 and 1.992
same,Emission ratio of 528/485,"[2]; Supplementary Fig. 6a, L-2-HG concentration 200",2.0666 and 2.05 and 2.077
same,Emission ratio of 528/485,"[2]; Supplementary Fig. 6a, L-2-HG concentration 1000",2.162 and 2.183 and 2.153
same,Emission ratio of 528/485,"[2]; Supplementary Fig. 6a, L-2-HG concentration 2000",2.173 and 2.178 and 2.17
same,Emission ratio of 528/485,"[2]; Supplementary Fig. 6b, L-2-HG concentration 0.01",1.79 and 1.921 and 1.894
same,Emission ratio of 528/485,"[2]; Supplementary Fig. 6b, L-2-HG concentration 0.1",1.777 and 1.91 and 1.94
same,Emission ratio of 528/485,"[2]; Supplementary Fig. 6b, L-2-HG concentration 1",2.057 and 2.207 and 2.255
same,Emission ratio of 528/485,"[2]; Supplementary Fig. 6b, L-2-HG concentration 2",2.268 and 2.379 and 2.449
same,Emission ratio of 528/485,"[2]; Supplementary Fig. 6b, L-2-HG concentration 10",2.5843 and 2.787 and 2.825
same,Emission ratio of 528/485,"[2]; Supplementary Fig. 6b, L-2-HG concentration 20",2.72 and 2.88 and 2.892
same,Emission ratio of 528/485,"[2]; Supplementary Fig. 6b, L-2-HG concentration 100",2.76 and 2.892 and 2.986
same,Emission ratio of 528/485,"[2]; Supplementary Fig. 6b, L-2-HG concentration 1000",2.847 and 2.935 and 2.998
same,Emission ratio of 528/485,"[2]; Supplementary Fig. 6b, L-2-HG concentration 2000",2.912 and 2.995 and 3.032
same,Emission ratio of 528/485,"[2]; Supplementary Fig. 6c, L-2-HG concentration 0.01",1.881 and 1.865 and 1.887
same,Emission ratio of 528/485,"[2]; Supplementary Fig. 6c, L-2-HG concentration 0.1",1.869 and 1.918 and 1.908
same,Emission ratio of 528/485,"[2]; Supplementary Fig. 6c, L-2-HG concentration 1",2.144 and 2.182 and 2.149
same,Emission ratio of 528/485,"[2]; Supplementary Fig. 6c, L-2-HG concentration 2",2.3419 and 2.384 and 2.402
same,Emission ratio of 528/485,"[2]; Supplementary Fig. 6c, L-2-HG concentration 10",2.743 and 2.7667 and 2.84
same,Emission ratio of 528/485,"[2]; Supplementary Fig. 6c, L-2-HG concentration 20",2.846 and 2.91 and 2.871
same,Emission ratio of 528/485,"[2]; Supplementary Fig. 6c, L-2-HG concentration 100",2.914 and 2.957 and 2.953
same,Emission ratio of 528/485,"[2]; Supplementary Fig. 6c, L-2-HG concentration 1000",2.894 and 2.9819 and 2.963
